Measured values reported in US6716858B1, “Methods for inhibiting diabetic complications” (Kansas University Medical Center, priority 1995, dated 2004).

Legend:
ribose-treated rats = assay: Ribose rat model, intervention by compounds (Phase III); format: in vivo; details: for Albumin effusion rate (AER): absence of ribose, pyridoxamine and TPP 250 mg/kg, aminoguanidine 25 mg/kg
Description: Sixty rats were randomized into 9 different groups, including those exposed to 1 M ribose for 8 days in the presence and absence of aminoguanidine, pyridoxamine, and thiamine pyrophosphate as follows:
(ii) high dose (250 mg/kg body weight) of pyridoxamine (“compound-P”);
(iii) high dose (250 mg/kg body weight of thiamine pyrophosphate (“compound-T” or “TPP”); and
(iv) low dose (25 mg/kg body weight) of aminoguanidine (“AG”).
(i) only 1 M ribose-saline (2×9 cc daily IP for 8 days);
(ii) ribose plus low dose (“LP”) of pyridoxamine (25 mg/kg body weight injected as 0.5 ml with 9 cc ribose);
(iii) ribose plus high dose (“HP”) of pyridoxamine (250 mg/kg body weight injected as 0.5 ml with 9 cc ribose);
(iv) ribose plus high dose (“HT”) of thiamine pyrophosphate (250 mg/kg body weight injected as 0.5 ml with 9 cc ribose); and
(v) ribose plus low dose of amino guanidine (25 mg/kg body weight injected as 0.5 ml with 9 cc ribose).
Unlike Phase II, no ribose was administered in drinking water. Intervention compounds were pre-administered for one day prior to introducing them with ribose.

[1] = test system: post-Amadori AGE formation, BSA Amadori intermediate; assay: Interrupted (post-Amadori) ribose glycation assay, BSA; format: biochemical, bovine
Description: ELISA detection of AGE products. The general method of Engvall (1981, Methods Enzymol. 70:419-439) was used to perform the ELISA. Typically, glycated protein samples were diluted to approximately 1.5 ug/ml in 0.1 M sodium carbonate buffer of pH 9.5 to 9.7. The protein was coated overnight at room temperature onto 96-well polystyrene plates by pippetting 200 ul of the protein solution in each well (0.3 ug/well). After coating, the protein was washed from the wells with a saline solution containing 0.05% Tween-20. The wells were then blocked with 200 ul of 1% casein in carbonate buffer for 2 h at 37° C. followed by washing. Rabbit anti-AGE antibodies were diluted at a titer of about 1:350 in incubation buffer, and incubated for 1 h at 37° C., followed by washing. In order to minimize background readings, antibodies R479 used to detect glycated RNase were raised against glycated BSA, and antibodies R618 used to detect glycated BSA and glycated Hb were raised against glycated RNase. An alkaline phosphatase-conjugated antibody to rabbit IgG was then added as the secondary antibody at a titer of 1:2000 or 1:2500 (depending on lot) and incubated for 1 h at 37° C., followed by washing. The p-nitrophenylphosphate substrate solution was then added (200 ul/well) to the plates, with the absorbance of the released p-nitrophenolate being monitored at 410 nm with a Dynatech MR 4000 microplate reader.
Glycation was first carried out by incubating protein (10 mg/ml) with 0.5 M ribose at 37° C. in 0.4 M phosphate buffer at pH 7.5 containing 0.2% sodium azide for 24 h in the absence of inhibitors. Glycation was then interrupted to remove excess and reversibly bound (Schiff base) sugar by extensive dialysis against frequent cold buffer changes at 4° C. The glycated intermediate samples containing maximal amount of Amadori product and little AGE (depending on protein) were then quickly warmed to 37° C. without re-addition of ribose. This initiated conversion of Amadori intermediates to AGE products in the absence or presence of various concentrations (typically 3, 15 and 50 mM) of prospective inhibitors. Aliquots were taken and frozen at various intervals for later analysis. The solutions were kept in capped tubes and opened only to remove timed aliquots that were immediately frozen for later carrying out the various analyses.

[2] = co-administered with 1 M ribose, 250 mg/kg
[3] = compound alone, 250 mg/kg, no ribose
[4] = 24 h in 0.5 M ribose, then free ribose removed, 37° C.
[5] = co-administered with 1 M ribose, low dose 25 mg/kg

Cc1ncc(C[n+]2csc(CCO[P@](=O)(O)OP(=O)(O)O)c2C)c(N)n1 [thiamine pyrophosphate]
Albumin effusion rate (AER) (ribose-treated rats): elevated | creatinine clearance (ribose-treated rats; [2]): only partial protection against the ribose-induced decrease in creatinine clearance | creatinine clearance (ribose-treated rats; [3]): diminished it | inhibition of post-Amadori AGE formation [1, 4]: inhibited AGE formation more effectively than the other B1 derivatives

N=C(N)NN [aminoguanidine, reference compound]
Albumin effusion rate (AER) (ribose-treated rats): elevated | Albumin effusion rate (ribose-treated rats; [5]): restored to normal | creatinine clearance (ribose-treated rats; [5]): normalized | inhibition of post-Amadori AGE formation ([1]; 50 mM inhibitor): about 20% | inhibition of post-Amadori AGE formation [1, 4]: Comparable results

Cc1ncc(CO)c(CN)c1O [pyridoxamine]
Albumin effusion rate (AER) (ribose-treated rats): elevated | creatinine clearance (ribose-treated rats; [2]): only partial protection against the ribose-induced decrease in creatinine clearance | Albumin effusion rate (ribose-treated rats; [5]): restored to normal | creatinine clearance (ribose-treated rats; [5]): normalized | creatinine clearance (ribose-treated rats; [3]): but not pyridoxamine, appeared to decrease creatinine clearance
